According to article PMC3100226 (Journal of Pain Research, 2011):

Experiments:
TNF-α converting enzyme = TNF-α converting enzyme (Homo sapiens, UniProt P78536); test: Enzyme characterization panel: TNF-α converting enzyme; type: biochemical; conditions: data not shown
imidazoline I2 receptor = test: [3H]2-BFI binding to imidazoline I2 receptors in rat whole-brain membranes; conditions: read-out: IC50, nM, [3H]2-BFI binding to the imidazoline I2 receptor; Table S2; rat whole brain membranes, […] [3H]2-BFI, 90 minutes at 25°C; mean ± SEM
CCK2 = target: T1, CCK2 (Cavia porcellus, UniProt H0VZC5); test: Receptor characterization panel: CCK2 binding; design: species or system guinea pig; conditions: read-out: 10 μM CR4056 (% effect), inhibition of specific binding
T1 sequence (H0VZC5 1-426): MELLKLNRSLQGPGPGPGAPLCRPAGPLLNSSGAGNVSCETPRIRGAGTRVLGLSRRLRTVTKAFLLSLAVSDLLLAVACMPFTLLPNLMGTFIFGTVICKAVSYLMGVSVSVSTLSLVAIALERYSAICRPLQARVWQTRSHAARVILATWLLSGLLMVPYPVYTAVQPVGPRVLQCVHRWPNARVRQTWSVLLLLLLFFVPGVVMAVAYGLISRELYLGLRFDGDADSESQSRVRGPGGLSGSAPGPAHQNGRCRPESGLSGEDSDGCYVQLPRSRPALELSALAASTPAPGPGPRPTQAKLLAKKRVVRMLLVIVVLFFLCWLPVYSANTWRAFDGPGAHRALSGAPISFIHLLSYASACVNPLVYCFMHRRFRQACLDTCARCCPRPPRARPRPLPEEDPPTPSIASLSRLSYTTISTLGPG

[1] = system: STZ-induced diabetic pain in rats; test: Streptozotocin-induced neuropathic; type: in vivo; conditions: rat, 60 mg/kg oral
[2] = system: acid-induced muscle allodynia in rats; test: Acid-induced muscle allodynia; type: in vivo; conditions: rat; for Mechanical threshold (grams) ± SEM, left paw (SX) / Mechanical threshold (grams) ± SEM, right paw (DX): day 6 after treatment, OS
GABA-A (muscimol site) = test: Receptor characterization panel: GABA-A muscimol site binding; conditions: 10 μM; [3H]Muscimol; cerebral cortex/rat
[3] = system: locomotor activity of rats; test: Open field test; type: in vivo; conditions: rat; 3–30 mg/kg oral, one hour after administration
human recombinant MAO-A = human recombinant MAO-A (Homo sapiens, UniProt P21397); test: Human recombinant MAO-A functional assay; type: biochemical
human recombinant MAO-A, sequence (P21397 whole entry): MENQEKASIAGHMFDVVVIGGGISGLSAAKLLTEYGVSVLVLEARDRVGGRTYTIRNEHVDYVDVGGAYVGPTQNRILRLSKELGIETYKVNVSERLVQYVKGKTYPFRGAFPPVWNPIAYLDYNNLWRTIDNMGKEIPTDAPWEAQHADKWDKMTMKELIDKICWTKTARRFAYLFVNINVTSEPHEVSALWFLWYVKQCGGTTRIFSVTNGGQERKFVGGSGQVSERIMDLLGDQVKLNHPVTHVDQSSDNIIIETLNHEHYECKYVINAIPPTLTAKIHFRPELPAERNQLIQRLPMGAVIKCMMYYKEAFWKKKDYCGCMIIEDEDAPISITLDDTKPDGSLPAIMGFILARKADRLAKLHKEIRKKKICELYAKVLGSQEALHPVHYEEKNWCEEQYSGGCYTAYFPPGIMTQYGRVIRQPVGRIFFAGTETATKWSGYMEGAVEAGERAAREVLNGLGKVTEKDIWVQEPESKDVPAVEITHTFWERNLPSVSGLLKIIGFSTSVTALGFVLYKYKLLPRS

rats = test: Diuretic effect in rats; type: in vivo, rat; conditions: pharmacological/toxicological dose range
D2 = D2 (Rattus norvegicus, UniProt P61169); test: Receptor characterization panel: D2 binding; conditions: read-out: 10 μM CR4056 (% effect), inhibition of specific binding
D2, sequence (P61169 whole entry): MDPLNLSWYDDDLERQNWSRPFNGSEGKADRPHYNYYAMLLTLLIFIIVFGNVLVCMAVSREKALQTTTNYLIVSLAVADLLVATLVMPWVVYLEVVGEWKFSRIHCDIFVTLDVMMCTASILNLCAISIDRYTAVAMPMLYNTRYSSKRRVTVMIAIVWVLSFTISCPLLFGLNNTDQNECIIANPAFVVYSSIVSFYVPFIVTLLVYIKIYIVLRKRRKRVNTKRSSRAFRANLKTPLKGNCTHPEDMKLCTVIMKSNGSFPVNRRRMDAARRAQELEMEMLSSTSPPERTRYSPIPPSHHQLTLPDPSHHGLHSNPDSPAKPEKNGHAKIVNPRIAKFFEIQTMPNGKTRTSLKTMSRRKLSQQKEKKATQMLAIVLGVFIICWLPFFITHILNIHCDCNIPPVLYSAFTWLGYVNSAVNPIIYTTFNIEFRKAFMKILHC

carbonic anhydrase II = carbonic anhydrase II (Homo sapiens, UniProt P00918); test: Enzyme characterization panel: carbonic anhydrase II; type: biochemical; conditions: data not shown
[4] = system: capsaicin-induced neurogenic/inflammatory pain in rats; test: Capsaicin-induced mechanical hyperalgesia; type: in vivo; conditions: rat
PI 3-Kγ = PI 3-Kγ (Homo sapiens, UniProt P48736); test: Enzyme characterization panel: PI 3-Kγ; type: biochemical; conditions: data not shown
PI 3-Kγ, sequence (P48736 whole entry, species assumed): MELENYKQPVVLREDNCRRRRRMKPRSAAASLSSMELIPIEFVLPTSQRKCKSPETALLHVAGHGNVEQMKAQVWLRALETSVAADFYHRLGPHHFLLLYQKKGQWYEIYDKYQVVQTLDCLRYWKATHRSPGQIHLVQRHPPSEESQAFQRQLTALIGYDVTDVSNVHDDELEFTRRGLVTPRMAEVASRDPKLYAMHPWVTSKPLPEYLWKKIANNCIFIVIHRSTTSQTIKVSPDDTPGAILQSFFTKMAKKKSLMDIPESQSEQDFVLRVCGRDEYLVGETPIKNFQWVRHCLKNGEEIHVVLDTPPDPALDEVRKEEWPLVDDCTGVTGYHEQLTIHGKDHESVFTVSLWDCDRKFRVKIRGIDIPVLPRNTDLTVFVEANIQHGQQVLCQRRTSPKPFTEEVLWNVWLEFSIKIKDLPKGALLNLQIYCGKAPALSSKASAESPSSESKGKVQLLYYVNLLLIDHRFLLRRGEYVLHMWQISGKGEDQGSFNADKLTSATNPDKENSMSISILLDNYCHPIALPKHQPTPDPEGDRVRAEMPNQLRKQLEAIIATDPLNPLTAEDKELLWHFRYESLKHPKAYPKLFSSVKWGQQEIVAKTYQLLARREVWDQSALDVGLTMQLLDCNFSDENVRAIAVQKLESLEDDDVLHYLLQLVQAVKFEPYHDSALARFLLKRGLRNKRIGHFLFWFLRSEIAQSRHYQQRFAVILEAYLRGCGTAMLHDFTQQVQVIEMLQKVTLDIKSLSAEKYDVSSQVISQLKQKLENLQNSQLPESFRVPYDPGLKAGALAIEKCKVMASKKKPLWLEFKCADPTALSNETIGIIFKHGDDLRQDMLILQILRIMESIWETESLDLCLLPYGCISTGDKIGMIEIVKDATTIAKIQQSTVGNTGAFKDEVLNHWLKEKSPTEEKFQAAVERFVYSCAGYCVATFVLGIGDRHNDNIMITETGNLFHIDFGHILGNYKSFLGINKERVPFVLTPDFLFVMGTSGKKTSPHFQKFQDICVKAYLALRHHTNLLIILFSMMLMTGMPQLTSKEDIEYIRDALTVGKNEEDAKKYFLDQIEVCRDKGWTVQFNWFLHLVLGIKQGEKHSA

[5] = system: CFA-induced inflammatory pain in rats; test: CFA-induced mechanical hyperalgesia; type: in vivo; conditions: rat; p.o., 24 hours after CFA
CCK1 = CCK1 (Rattus norvegicus, UniProt P30551); test: Receptor characterization panel: CCK1 binding; conditions: read-out: 10 μM CR4056 (% effect), inhibition of specific binding
CCK1, sequence (P30551 whole entry): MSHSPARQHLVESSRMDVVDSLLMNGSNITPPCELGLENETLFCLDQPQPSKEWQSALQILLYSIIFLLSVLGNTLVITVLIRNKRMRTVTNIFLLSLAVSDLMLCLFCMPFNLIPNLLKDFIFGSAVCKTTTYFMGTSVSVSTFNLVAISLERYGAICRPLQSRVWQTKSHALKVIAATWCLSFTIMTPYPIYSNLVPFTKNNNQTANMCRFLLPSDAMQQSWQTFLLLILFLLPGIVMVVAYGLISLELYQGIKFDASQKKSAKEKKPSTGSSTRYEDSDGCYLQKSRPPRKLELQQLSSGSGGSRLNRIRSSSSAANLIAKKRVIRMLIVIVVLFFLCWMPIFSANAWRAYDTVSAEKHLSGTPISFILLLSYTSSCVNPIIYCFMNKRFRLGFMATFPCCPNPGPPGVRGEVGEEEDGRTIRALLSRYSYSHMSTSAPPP

TNF-α converting enzyme, sequence (P78536 215-824, species assumed): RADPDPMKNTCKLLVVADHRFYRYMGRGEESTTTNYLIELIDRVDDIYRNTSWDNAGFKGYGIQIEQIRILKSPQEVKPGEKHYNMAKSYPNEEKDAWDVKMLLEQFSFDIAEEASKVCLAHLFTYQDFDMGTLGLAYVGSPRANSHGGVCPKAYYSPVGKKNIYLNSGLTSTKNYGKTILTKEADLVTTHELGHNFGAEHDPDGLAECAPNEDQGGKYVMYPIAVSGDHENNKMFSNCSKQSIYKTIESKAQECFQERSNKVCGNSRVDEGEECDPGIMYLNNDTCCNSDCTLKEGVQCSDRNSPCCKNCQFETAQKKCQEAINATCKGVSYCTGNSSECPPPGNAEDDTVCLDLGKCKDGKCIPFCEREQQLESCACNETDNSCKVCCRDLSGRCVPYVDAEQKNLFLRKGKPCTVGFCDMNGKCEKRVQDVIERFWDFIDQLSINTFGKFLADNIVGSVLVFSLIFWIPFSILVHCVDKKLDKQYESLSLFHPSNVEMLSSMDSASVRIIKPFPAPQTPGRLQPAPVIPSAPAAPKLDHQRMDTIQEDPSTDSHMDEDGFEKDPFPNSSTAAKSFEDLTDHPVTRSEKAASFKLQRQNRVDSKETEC

c1ccc(-c2ncc3cc(-n4ccnc4)ccc3n2)cc1 [CR4056, 2-phenyl-6-(1H-imidazol-1yl)quinazoline]
Activity in enzyme characterization panel (TNF-α converting enzyme): inactive
IC50 (imidazoline I2 receptor): 596 ± 76 nM
inhibition at 10 µM (CCK2): 16%
Decrease of total STZ-induced hyperalgesic effect, AUC analysis (0–6 hours) [1]: 84%
Reduction of mechanical hyperalgesia at 6 hours post-dosing [1]: 58%
Reversal of STZ-induced mechanical hyperalgesia ([1]; within 30 minutes): completely reversed
Reversal of acidic saline induced allodynia ([2]; 20 and 60 mg/kg oral): completely reversed
Mechanical threshold (grams) ± SEM, left paw (SX) ([2]; 6 mg/kg): 27.9 ± 1.1 grams
Mechanical threshold (grams) ± SEM, right paw (DX) ([2]; 6 mg/kg): 28.3 ± 1.9 grams
Mechanical threshold (grams) ± SEM, left paw (SX) ([2]; 20 mg/kg): 37.1 ± 0.8 grams
Mechanical threshold (grams) ± SEM, right paw (DX) ([2]; 20 mg/kg): 38.4 ± 1.7 grams
Mechanical threshold (grams) ± SEM, left paw (SX) ([2]; 60 mg/kg): 39.2 ± 1.6 grams
Mechanical threshold (grams) ± SEM, right paw (DX) ([2]; 60 mg/kg): 37.4 ± 2.1 grams
10 μM CR4056 (% effect), inhibition of specific binding (GABA-A (muscimol site)): 26%
Locomotor activity levels in open field test [3]: no statistical differences
IC50 (human recombinant MAO-A): 203 ± 10.3 nM
Diuretic effect (rats): dose-dependent diuretic effect
inhibition at 10 µM (D2): 25%
Activity in enzyme characterization panel (carbonic anhydrase II): inactive
Reversal of the decrease in withdrawal threshold caused by capsaicin ([4]; 10 mg/kg oral, P < 0.001 versus vehicle): significantly reversed
Reversal of the effect of capsaicin ([4]; 30 mg/kg oral): completely reversed
ED50, capsaicin-induced mechanical hyperalgesia, CR4056 alone ([4]; p.o.): 4.13 mg/kg
ED100, capsaicin-induced mechanical hyperalgesia ([4]; p.o.): 17.9 mg/kg
Activity in enzyme characterization panel (PI 3-Kγ): inactive
ED100 (calculated), complete reversion of CFA-induced hyperalgesia [5]: 22.3 mg/kg
inhibition at 10 µM (CCK1): 21%
